This note sets out measurements from patent US10314883B2, “Compositions and methods for regulating blood pressure” (University of Virginia Patent Foundation, priority 2015, dated 2019).

The subject of assay [1] is thoracodorsal arteries (TDA). The assay can be described thus: Pressure myography: agonist-induced constriction of pressurized TDAs from C57Bl/6 mice with pannexin inhibitors or Panx1 mimetic peptides. Particulars: for effect on phenylephrine-induced constriction of pressurized TDAs: TAT-linked peptides. In kind it is cell-based, mouse. On the procedure:
The contractile responses of pressurized thoracodorsal arteries (TDA) were measured as previously described. Briefly, TDA were isolated and placed in cold Krebs-HEPES until cannulation in a pressure arteriograph (Danish MyoTechnology). After a 30 minute equilibration period, cumulative concentrations of contractile agonists were applied to the TDA pressurized at 80 mmHg, and the vessel was visualized with an Olympus IX-71 microscope attached to a Hamamatsu EM-CCD camera coupled to Slidebook imaging software. […] Lastly, maximal diameter was measured at the end of each experiment in calcium-free Krebs-HEPES supplemented with EGTA (1 mmol/L) and sodium nitroprusside (10 μmol/L). In cases where the vessels were not constricting to the contractile agonist, their viability was assessed by applying 40 mM KCl and only TDA reaching 30% of the maximal diameter were considered for analysis. The contractile responses, as well as the basal tone, are expressed as a percentage of the maximal diameter.
Using pressure arteriography on TDA dissected from C57Bl/6 mice (as described; and aortic ring contraction, as described), we measured the effect of pannexin inhibitors, probenecid and 10Panx1, on the contractile response upon stimulation with different vasoconstrictors: phenylephrine (FIG. 1A), noradrenaline (also called norepinephrine) (FIG. 1B), serotonin (also known as 5-HT) (FIG. 1C) and endothelin-1 (FIG. 1D). […] In contrast, ^10Panx1 and probenecid had no effect on contraction of TDA measured in response to cumulative concentrations of serotonin or endothelin-1 (FIGS. 1C-D; Table 1).
To determine the region of Panx1 necessary for channel activation in response to α1AR stimulation, we produced short peptides derived from the intracellular regions of the Panx1 channel. We generated two peptides mimicking unique mouse Panx1 (mPanx1) sequences in the first intracellular loop (IL1 and IL2) and two peptides mimicking unique mPanx1 sequences in the C-terminal region, one in second intracellular loop (CT1) and one in the C-terminal tail (CT2) (FIG. 4A scissors indicate caspase 3 cleavage site; Table 3). All peptides also contained a TAT sequence to facilitate entry into cells and we verified the intracellular localization of each peptide by immunofluorescence detection of the TAT sequence in TDAs pre-incubated with each peptide (FIG. 7A). We tested the effect of each peptide on phenylephrine-induced contractile responses in pressurized TDAs from C57Bl/6 mice (FIGS. 4B-E). […] Note that these differences in effects of phenylephrine were similar in magnitude to those observed in arteries from SMC-specific Panx1-knockout mice and littermate controls (FIG. 2C, Table 2).

For assay [2], the system named is C57Bl/6 mice. The experiment in a line: Blood pressure by radiotelemetry after peptide injection. The format is in vivo, mouse. To be noted: conscious C57Bl/6 mice, acute intraperitoneal injection, within 1.5 hours; 5 mg/kg or 20 mg/kg. As for the experimental part: Blood pressure was measured using radiotelemetry units (Data Sciences International, DSI) implanted in C57Bl/6, Cre^−/Panx1^F1, Cre^−/Panx1^WT, Cre^+/Panx1^WT, and Cre^+/Panx1^F1 mice. The catheter of a radiotelemetry unit (TA11PA-C10, DSI) was implanted in the mouse left carotid artery under isoflurane anesthesia, and the catheter was tunneled trough the radiotransmitter placed in a subcutaneous pouch along the right flank of the mouse, as previously described. After implantation, mice were allowed to recover for seven days.
[…] Blood pressure was recorded for another 1.5 hours, and the mean arterial pressure data from 1 to 1.5 hours post injection was averaged and compared to the basal blood pressure. The ΔMAP was calculated by subtracting the average mean arterial pressure measured for 30 minutes prior to injection to the mean arterial pressure measured for 30 minutes one hour post injection. […]
Based on the central role of α1AR signaling in blood pressure homeostasis, we evaluated the effect of Panx1 deletion on systemic blood pressure. Blood pressure was measured using radiotelemetry units as previously described by us. Blood pressure was measured on the conditional KO mouse model for five days before proceeding to tamoxifen injections, and for another five days 24 hours after the last tamoxifen injection. […]

[3] abbreviates: in presence of the named peptide.

KYPIVEQYLKYGRKKQRRR [IL2]: in assay [1] (C57Bl/6 TDAs), the “effect on noradrenaline-induced constriction” value was “inhibited” and the “effect on phenylephrine-induced constriction of pressurized TDAs” value is recorded as “significantly decreased”. Further, in assay [1] (setting [3]), the “EMAX of endothelin-1 for TDA constriction” value is on record as 41.9 ± 3.73 percentage of maximal diameter, the “EMAX of noradrenaline for TDA constriction” value is recorded as 53.4 ± 7.00 percentage of maximal diameter, the “EMAX of phenylephrine for TDA constriction” value was 68.6 ± 5.11 percentage of maximal diameter and the “EMAX of serotonin for TDA constriction” value was 36.7 ± 3.52 percentage of maximal diameter. Moreover, the “reduction of mean arterial blood pressure” value in assay [2] was 13.0±3.3 mmHg.
For “scrambled intracellular loop 2 IYLYVEQKPY (SEQ ID NO: 7) linked with a TAT sequence [Scrambled IL2]”, the “effect on phenylephrine-induced constriction of pressurized TDAs” value in assay [1] (C57Bl/6 TDAs) is recorded as “no significant effect”. Moreover, the “EMAX of phenylephrine for TDA constriction” value in assay [1] (setting [3]) was 47.5 ± 2.17 percentage of maximal diameter. Besides, the “reduction of mean arterial blood pressure” value in assay [2] is “no significant effect”.
